Measurements as given in ChEMBL document CHEMBL5137014, “Insight on pyrimido[5,4-g]indolizine and pyrimido[4,5-c]pyrrolo[1,2-a]azepine systems as promising photosensitizers on malignant cells” (Eur J Med Chem, 2022).
Activity calls are given as the source filed them. The calls are words filed in the database; no cut-off is given here.

Tests used:
MDA-MB-231 [1] = test: Phototoxicity against human MDA-MB-231 cells assessed as cell viability incubated for 1 hr followed by irradiated with 2 J/cm^2 of light dose measured after 72 hrs by MTT assay; type: functional, cell-based; conditions: MDA-MB-231, light or radiation study
MDA-MB-231 [2] = test: Dark toxicity against human MDA-MB-231 cells assessed as cell viability after 72 hrs by MTT assay; type: functional, cell-based; conditions: MDA-MB-231, 72 h
[3] = Induction of superoxide anion generation irradiated with 560 nm LED light; type: functional
DNA [4] = test: Induction of DNA damage in Escherichia coli pBR322 DNA assessed as supercoiled DNA irradiated with 15 J/cm^2 UV light dose relative to control; type: nucleic-acid assay
[5] = Selectivity index, ratio of IC50 for dark toxicity against human MDA-MB-231 cells to IC50 for phototoxicity against human MDA-MB-231 cells irradiated with 2 J/cm^2 of light dose; type: cell-based; conditions: read-out: Ratio IC50
DNA [6] = test: Induction of DNA damage in Escherichia coli pBR322 DNA assessed as open circular DNA relative to control; type: nucleic-acid assay
DNA [7] = test: Induction of DNA damage in Escherichia coli pBR322 DNA assessed as supercoiled DNA relative to control; type: nucleic-acid assay
DNA [8] = test: Induction of DNA damage in Escherichia coli pBR322 DNA assessed as open circular DNA irradiated with 7.5 J/cm^2 UV light dose relative to control; type: nucleic-acid assay
DNA [9] = test: Induction of DNA damage in Escherichia coli pBR322 DNA assessed as supercoiled DNA irradiated with 7.5 J/cm^2 UV light dose relative to control; type: nucleic-acid assay
DNA [10] = test: Induction of DNA damage in Escherichia coli pBR322 DNA assessed as open circular DNA irradiated with 15 J/cm^2 UV light dose relative to control; type: nucleic-acid assay
T-24 [11] = test: Induction of apoptosis in human T24 cells assessed as necrotic cells at IC50 followed by irradiated with 2 J/cm^2 of light dose after 24 hrs annexin-V-PI staining based flow cytometry; type: functional, cell-based
[12] = Induction of singlet oxygen in phosphate buffer assessed as RNO bleaching at pH 7.3 irradiated with 440 nm LED light by spectrophotometry; type: functional
MDA-MB-231 [13] = test: Induction of apoptosis in human MDA-MB-231 cells assessed as pyknotic nuclei at IC50 measured after 24 hrs by Hoechst staining based microscopic analysis; type: functional
T-24 [14] = test: Induction of apoptosis in human T24 cells assessed as apoptotic cells at IC50 followed by irradiated with 2 J/cm^2 of light dose after 24 hrs annexin-V-PI staining based flow cytometry; type: functional, cell-based
MDA-MB-231 [15] = test: Induction of reactive oxygen species production in human MDA-MB-231 cells assessed as decrease in thiol formation incubated for 1 hr followed by irradiated with 2 J/cm^2 of light dose after 24 hrs by DTNB assay; type: functional, cell-based; conditions: time 25.0 hrs, TDE = time-dependent effect
MDA-MB-231 [16] = test: Induction of reactive oxygen species production in human MDA-MB-231 cells assessed as increase in hydrogen peroxide production incubated for 1 hr followed by irradiated with 2 J/cm^2 of light dose by CM-H2DCFDA dye based fluorescence assay; type: functional, cell-based
T-24 [17] = test: Phototoxicity against human T24 cells assessed as cell viability incubated for 1 hr followed by irradiated with 2 J/cm^2 of light dose measured after 24 hrs by resazurin assay; type: functional, cell-based; conditions: T-24, light or radiation study
HCC1954 = test: Phototoxicity against human HCC1954 cells assessed as cell viability incubated for 1 hr followed by irradiated with 2 J/cm^2 of light dose measured after 24 hrs by resazurin assay; type: functional, cell-based; conditions: HCC1954, light or radiation study
MDA-MB-231 [18] = test: Induction of apoptosis in human MDA-MB-231 cells assessed as chromatin condensation and fragmentation at IC50 measured after 24 hrs by Hoechst staining based microscopic analysis; type: functional

Compound | IC50 (MDA-MB-231 [1]) [µM] | IC50 (MDA-MB-231 [2]) [µM] | selectivity ratio [5] | other results
CCOC(=O)c1ccc2n1CCCc1cnc(N)nc1-2 | > 50 | > 50 | – | –
CC(C)OC(=O)c1ccc2n1CCCc1cnc(NC3CCCCC3)nc1-2 | 3.75 | > 50 | > 13.3 | Activity [3]: Active; Activity (DNA [4]): 50.1%; Activity (DNA [6]): 38.5%; Activity (DNA [7]): 61.5%; Activity (DNA [8]): 49.5%; Activity (DNA [9]): 50.5%; Activity (DNA [10]): 49.9%
CC(=O)Nc1ncc2c(n1)-c1ccc(C(=O)OC(C)C)n1CC2 | 13.1 | > 50 | > 3.8 | –
CC(C)OC(=O)c1ccc2n1CCCc1cnc(NC3CCCC3)nc1-2 | 5.76 | > 50 | > 8.7 | –
CCOC(=O)c1ccc2n1CCCc1cnc(NC(C)=O)nc1-2 | 1.46 | 27.9 | 19.1 | –
CC(C)OC(=O)c1ccc2n1CCc1cnc(NC3CCCCC3)nc1-2 | 12.5 | > 50 | > 4 | Activity [3]: Active; Activity (DNA [4]): 36.6%; Activity (DNA [6]): 18.7%; Activity (DNA [7]): 81.3%; Activity (DNA [8]): 40.3%; Activity (DNA [9]): 59.7%; Activity (DNA [10]): 63.4%
CC(C)OC(=O)c1ccc2n1CCCc1cnc(N)nc1-2 | 5.76 | 5.87 | 1 | –
c1cc2n(c1)CCc1cnc(NC3CCCCC3)nc1-2 | 3 | > 50 | > 16.7 | –
CC(C)OC(=O)c1ccc2n1CCc1cnc(NC3CCCC3)nc1-2 | 13.4 | > 50 | > 3.7 | –
CCOC(=O)c1ccc2n1CCc1cnc(NC3CCCCC3)nc1-2 | 0.82 | 1.74 | 2.1 | Activity [3]: Active; Activity (T-24 [11]): Active; Activity [12]: Active; Activity (MDA-MB-231 [13]): 86.2%; Activity (T-24 [14]): Active; Activity (MDA-MB-231 [15]): Tde; Activity (DNA [4]): 83.5%; Activity (MDA-MB-231 [16]): Active; Activity (DNA [6]): 16.6%; Activity (DNA [7]): 83.4%; Activity (DNA [8]): 21.6%; IC50 (T-24 [17]): 0.96 µM; IC50 (HCC1954): 0.9 µM; Activity (DNA [9]): 78.4%; Activity (MDA-MB-231 [18]): 83.4%; Activity (DNA [10]): 16.5%
CC(=O)Nc1ncc2c(n1)-c1ccc(C(=O)OC(C)C)n1CCC2 | 17.2 | > 50 | > 2.9 | –
CC(=O)Nc1ncc2c(n1)-c1cccn1CC2 | 14.8 | > 50 | > 3.4 | –
CC(C)OC(=O)c1ccc2n1CCc1cnc(Nc3ccccc3)nc1-2 | > 50 | > 50 | – | –
CC(C)OC(=O)c1ccc2n1CCCc1cnc(Nc3ccccc3)nc1-2 | 14.3 | > 50 | > 3.5 | –
CCOC(=O)c1ccc2n1CCc1cnc(NC(C)=O)nc1-2 | 0.9 | > 6.25 | > 7 | –
CC(C)OC(=O)c1ccc2n1CCc1cnc(N)nc1-2 | 14.5 | 11.9 | 0.8 | –
Nc1ncc2c(n1)-c1cccn1CC2 | 6.81 | > 50 | > 7.3 | –
CCOC(=O)c1ccc2n1CCc1cnc(NC3CCCC3)nc1-2 | > 50 | > 50 | – | –
CCOC(=O)c1ccc2n1CCCc1cnc(NC3CCCCC3)nc1-2 | 0.45 | 5.44 | 12.1 | Activity [3]: Active; Activity (T-24 [11]): Active; Activity [12]: Active; Activity (MDA-MB-231 [13]): 61.5%; Activity (T-24 [14]): Active; Activity (MDA-MB-231 [15]): Tde; Activity (DNA [4]): 74.7%; Activity (MDA-MB-231 [16]): Active; Activity (DNA [6]): 13.8%; Activity (DNA [7]): 86.2%; Activity (DNA [8]): 23.9%; IC50 (T-24 [17]): 0.9 µM; IC50 (HCC1954): 1.5 µM; Activity (DNA [9]): 76.1%; Activity (MDA-MB-231 [18]): 81.3%; Activity (DNA [10]): 25.3%
CCOC(=O)c1ccc2n1CCCc1cnc(Nc3ccccc3)nc1-2 | 5.45 | > 50 | > 9.2 | –
c1ccc(Nc2ncc3c(n2)-c2cccn2CC3)cc1 | 5.55 | > 50 | > 9 | –
CCOC(=O)c1ccc2n1CCCc1cnc(NC3CCCC3)nc1-2 | 0.9 | 1.41 | 1.5 | –
c1cc2n(c1)CCc1cnc(NC3CCCC3)nc1-2 | 0.86 | 0.91 | 1.1 | –
